From PubChem BioAssay (NCI)
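In this assay, cells in 96-well plates receive the compound at five concentrations for 48 hours. Endpoints are linearly interpolated between the surrounding concentrations. At the TGI there is no net growth.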

Key:
Experiment in all cases: growth of human tumour cells (NCI), 48 h
786-0 renal = system: 786-0 renal
A498 renal = system: A498 renal
A549 NSCLC = system: A549 NSCLC
ACHN renal = system: ACHN renal
BT-549 breast = system: BT-549 breast
CAKI-1 renal = system: CAKI-1 renal
CCRF-CEM leukemia = system: CCRF-CEM leukemia
COLO 205 colon = system: COLO 205 colon
DU-145 prostate = system: DU-145 prostate
EKVX NSCLC = system: EKVX NSCLC
HCC-2998 colon = system: HCC-2998 colon
HCT-116 colon = system: HCT-116 colon
HCT-15 colon = system: HCT-15 colon
HL-60(TB) leukemia = system: HL-60(TB) leukemia
HOP-62 NSCLC = system: HOP-62 NSCLC
HOP-92 NSCLC = system: HOP-92 NSCLC
HS 578T breast = system: HS 578T breast
HT29 colon = system: HT29 colon
IGROV1 ovarian = system: IGROV1 ovarian
K-562 leukemia = system: K-562 leukemia
KM12 colon = system: KM12 colon
LOX IMVI melanoma = system: LOX IMVI melanoma
M14 melanoma = system: M14 melanoma
MALME-3M melanoma = system: MALME-3M melanoma
MCF7 breast = system: MCF7 breast
MDA-MB-231 breast = system: MDA-MB-231 breast
MDA-MB-435 = system: MDA-MB-435
MDA-N = system: MDA-N
MOLT-4 leukemia = system: MOLT-4 leukemia
NCI-H226 lung = system: NCI-H226 lung
NCI-H23 lung = system: NCI-H23 lung
NCI-H460 lung = system: NCI-H460 lung
NCI-H522 lung = system: NCI-H522 lung
NCI/ADR-RES ovarian = system: NCI/ADR-RES ovarian
OVCAR-3 ovarian = system: OVCAR-3 ovarian
OVCAR-4 ovarian = system: OVCAR-4 ovarian
OVCAR-5 ovarian = system: OVCAR-5 ovarian
OVCAR-8 ovarian = system: OVCAR-8 ovarian
PC-3 prostate = system: PC-3 prostate
RPMI-8226 leukemia = system: RPMI-8226 leukemia
RXF 393 renal = system: RXF 393 renal
SF-268 CNS = system: SF-268 CNS
SF-295 CNS = system: SF-295 CNS
SF-539 CNS = system: SF-539 CNS
SK-MEL-2 melanoma = system: SK-MEL-2 melanoma
SK-MEL-28 melanoma = system: SK-MEL-28 melanoma
SK-MEL-5 melanoma = system: SK-MEL-5 melanoma
SK-OV-3 ovarian = system: SK-OV-3 ovarian
SN12C renal = system: SN12C renal
SNB-19 CNS = system: SNB-19 CNS
SNB-75 CNS = system: SNB-75 CNS
SR leukemia = system: SR leukemia
SW-620 colon = system: SW-620 colon
T-47D breast = system: T-47D breast
TK-10 renal = system: TK-10 renal
U251 CNS = system: U251 CNS
UACC-257 melanoma = system: UACC-257 melanoma
UACC-62 melanoma = system: UACC-62 melanoma
UO-31 renal = system: UO-31 renal

For `COc1ccc(-n2c(Cn3nnc(-c4cccnc4)n3)nn(C3OC(COC(=O)c4ccccc4)C(OC(=O)c4ccccc4)C3OC(=O)c3ccccc3)c2=S)cc1` (configuration not stated), the TGI (786-0 renal) was over 100 µM, the TGI (A498 renal) was over 100 µM and the TGI (A549 NSCLC) was over 100 µM. For the same molecule, the TGI (ACHN renal) was over 100 µM, the TGI (BT-549 breast) was over 100 µM and the TGI (CAKI-1 renal) was over 100 µM. It also gave a TGI (CCRF-CEM leukemia) of over 100 µM, a TGI (COLO 205 colon) of over 100 µM and a TGI (DU-145 prostate) of over 100 µM. For the same molecule, the TGI (EKVX NSCLC) was over 100 µM, the TGI (HCC-2998 colon) was over 100 µM and the TGI (HCT-116 colon) was over 100 µM. It also gave a TGI (HCT-15 colon) of over 100 µM, a TGI (HL-60(TB) leukemia) of over 100 µM and a TGI (HOP-62 NSCLC) of over 100 µM. For the same molecule, the TGI (HOP-92 NSCLC) was over 100 µM, the TGI (HS 578T breast) was over 100 µM and the TGI (HT29 colon) was over 100 µM. The TGI (IGROV1 ovarian) was over 100 µM, the TGI (K-562 leukemia) was over 100 µM and the TGI (KM12 colon) was over 100 µM. It also gave a TGI (LOX IMVI melanoma) of over 100 µM, a TGI (M14 melanoma) of over 100 µM and a TGI (MALME-3M melanoma) of over 100 µM. For the same molecule, the TGI (MCF7 breast) was over 100 µM, the TGI (MDA-MB-231 breast) was over 100 µM and the TGI (MDA-MB-435) was over 100 µM. It also gave a TGI (MDA-N) of over 100 µM, a TGI (MOLT-4 leukemia) of over 100 µM and a TGI (NCI-H226 lung) of 36.1 µM. The TGI (NCI-H23 lung) was over 100 µM, the TGI (NCI-H460 lung) was over 100 µM and the TGI (NCI-H522 lung) was over 100 µM. It also gave a TGI (NCI/ADR-RES ovarian) of over 100 µM, a TGI (OVCAR-3 ovarian) of over 100 µM and a TGI (OVCAR-4 ovarian) of over 100 µM. For the same molecule, the TGI (OVCAR-5 ovarian) was over 100 µM, the TGI (OVCAR-8 ovarian) was over 100 µM and the TGI (PC-3 prostate) was over 100 µM. For the same molecule, the TGI (RPMI-8226 leukemia) was over 100 µM, the TGI (RXF 393 renal) was over 100 µM and the TGI (SF-268 CNS) was over 100 µM. The TGI (SF-295 CNS) was over 100 µM, the TGI (SF-539 CNS) was over 100 µM and the TGI (SK-MEL-2 melanoma) was over 100 µM. For the same molecule, the TGI (SK-MEL-28 melanoma) was over 100 µM, the TGI (SK-MEL-5 melanoma) was over 100 µM and the TGI (SK-OV-3 ovarian) was over 100 µM. For the same molecule, the TGI (SN12C renal) was over 100 µM, the TGI (SNB-19 CNS) was over 100 µM and the TGI (SNB-75 CNS) was over 100 µM. It also gave a TGI (SR leukemia) of over 100 µM, a TGI (SW-620 colon) of over 100 µM and a TGI (T-47D breast) of over 100 µM. The TGI (TK-10 renal) was over 100 µM, the TGI (U251 CNS) was over 100 µM and the TGI (UACC-257 melanoma) was over 100 µM. The TGI (UACC-62 melanoma) was over 100 µM and the TGI (UO-31 renal) was over 100 µM.

Molecule `O=C(O)c1cccc(OCCOc2cccc(C(=O)O)c2[N+](=O)[O-])c1[N+](=O)[O-]` has a TGI (786-0 renal) of over 100 µM, a TGI (A498 renal) of over 100 µM and a TGI (A549 NSCLC) of over 100 µM. The TGI (ACHN renal) was over 100 µM, the TGI (BT-549 breast) was over 100 µM and the TGI (CAKI-1 renal) was over 100 µM. The TGI (CCRF-CEM leukemia) was over 100 µM, the TGI (COLO 205 colon) was over 100 µM and the TGI (DU-145 prostate) was over 100 µM. It also gave a TGI (EKVX NSCLC) of over 100 µM, a TGI (HCC-2998 colon) of over 100 µM and a TGI (HCT-116 colon) of over 100 µM. It also gave a TGI (HCT-15 colon) of over 100 µM, a TGI (HL-60(TB) leukemia) of over 100 µM and a TGI (HOP-62 NSCLC) of over 100 µM. The TGI (HOP-92 NSCLC) was over 100 µM, the TGI (HS 578T breast) was over 100 µM and the TGI (HT29 colon) was over 100 µM. It also gave a TGI (IGROV1 ovarian) of over 100 µM, a TGI (KM12 colon) of over 100 µM and a TGI (LOX IMVI melanoma) of over 100 µM. The TGI (M14 melanoma) was over 100 µM, the TGI (MALME-3M melanoma) was over 100 µM and the TGI (MCF7 breast) was over 100 µM. It also gave a TGI (MDA-MB-231 breast) of over 100 µM, a TGI (MDA-MB-435) of over 100 µM and a TGI (MDA-N) of over 100 µM. For the same molecule, the TGI (MOLT-4 leukemia) was over 100 µM, the TGI (NCI-H226 lung) was over 100 µM and the TGI (NCI-H23 lung) was over 100 µM. The TGI (NCI-H460 lung) was over 100 µM, the TGI (NCI-H522 lung) was over 100 µM and the TGI (NCI/ADR-RES ovarian) was over 100 µM. It also gave a TGI (OVCAR-3 ovarian) of over 100 µM, a TGI (OVCAR-4 ovarian) of over 100 µM and a TGI (OVCAR-5 ovarian) of over 100 µM. The TGI (OVCAR-8 ovarian) was over 100 µM, the TGI (PC-3 prostate) was over 100 µM and the TGI (RPMI-8226 leukemia) was over 100 µM. For the same molecule, the TGI (RXF 393 renal) was over 100 µM, the TGI (SF-268 CNS) was over 100 µM and the TGI (SF-295 CNS) was over 100 µM. The TGI (SF-539 CNS) was over 100 µM, the TGI (SK-MEL-2 melanoma) was over 100 µM and the TGI (SK-MEL-28 melanoma) was over 100 µM. The TGI (SK-MEL-5 melanoma) was over 100 µM, the TGI (SK-OV-3 ovarian) was over 100 µM and the TGI (SN12C renal) was over 100 µM. It also gave a TGI (SNB-19 CNS) of over 100 µM, a TGI (SNB-75 CNS) of over 100 µM and a TGI (SR leukemia) of over 100 µM. For the same molecule, the TGI (SW-620 colon) was over 100 µM, the TGI (T-47D breast) was over 100 µM and the TGI (TK-10 renal) was over 100 µM. It also gave a TGI (U251 CNS) of over 100 µM, a TGI (UACC-257 melanoma) of over 100 µM and a TGI (UACC-62 melanoma) of over 100 µM. For the same molecule, the TGI (UO-31 renal) was over 100 µM.
